The text below walks through data of US12054486B2, “Pyridine derivatives and their use as sodium channel activators” (Xenon Pharmaceuticals Inc., priority 2021, dated 2024).

Structures can show the parent of a compound that is named as a salt. Some results are limits rather than exact numbers.

This assay has as its target sodium channel isoforms of interest stably expressed in Human Embryonic Kidney Cells (voltage-gated sodium channel, particularly NaV1.1) (Homo sapiens, UniProt P35498). Put plainly: automated planar patch clamp assay of sodium channel gating (area under the sodium current trace). The class given is cell-based. The note with it: HEK cells, voltage step from −120 mV to 0 mV, increasing concentrations. The source says: A typical assay described in Crestey, F. et al., ACS Chem Neurosci (2015), Vol. 6, pp. 1302-1308, AA43279 (Frederiksen, K. et al., Eur J Neurosci (2017), Vol. 46, pp. 1887-1896) and Lu AE98134 (von Schoubyea, N. L. et al., Neurosci Lett (2018), Vol. 662, pp. 29-35) employs the use of automated planar patch clamp techniques to study the effects of the chemical agent on the gating of sodium channels. The sodium channel isoforms of interest are stably expressed in Human Embryonic Kidney Cells and the currents that flow through those channels in response to a depolarizing voltage clamp step from −120 mV to 0 mV are measured in the presence of increasing concentrations of the chemical agents. The area under the sodium current trace which correlates to the magnitude of sodium flux through the cell membrane is used to quantify the effects on gating of the channels. Other parameters that are measured in the assay include the peak current, time constant of open state inactivation and the voltage dependence of steady state inactivation properties. The concentration responses are used to determine potency of each chemical agents effects on modulating the sodium channel isoform gating. Such techniques are known to those skilled in the art, and may be developed, using current technologies, into low or medium throughput assays for evaluating compounds for their ability to modulate sodium channel behaviour.
As disclosed above, typical assays for testing compounds of the disclosure are known, for example as disclosed in Crestey, F. et al., ACS Chem Neurosci (2015), Vol. 6, pp. 1302-1308, AA43279 (Frederiksen, K. et al., Eur J Neurosci (2017), Vol. 46, pp. 1887-1896) and Lu AE98134 (von Schoubyea, N. L. et al., Neurosci Lett (2018), Vol. 662, pp. 29-35) which employs the use of automated planar patch clamp techniques to study the effects of the chemical agent on the gating of sodium channels. The sodium channel isoforms of interest are stably expressed in Human Embryonic Kidney Cells and the currents that flow through those channels in response to a depolarizing voltage clamp step from −120 mV to 0 mV are measured in the presence of increasing concentrations of the chemical agents. The area under the sodium current trace which correlates to the magnitude of sodium flux through the cell membrane is used to quantify the effects on gating of the channels. Other parameters that are measured in the assay include the peak current, time constant of open state inactivation and the voltage dependence of steady state inactivation properties. The concentration responses are used to determine potency of each chemical agents effects on modulating the sodium channel isoform gating.
(In general: The patch-clamp technique gives a direct electrical read-out from membranes.)
One may read the EC50 as the concentration at which the effect is half-maximal. Read a low EC50 as higher potency in that assay. As to `F[C@H]1CCN(c2nccc(-c3ccccc3)c2-c2nc3c([nH]2)CN(Cc2ccccc2)CC3)C1` [Example 42, (S)-5-benzyl-2-(2-(3-fluoropyrrolidin-1-yl)-4-phenylpyridin-3-yl)-4,5,6,7-tetrahydro-3H-imidazo[4,5-c]pyridine], the EC50 is below 1 µM and the “Empirical Emax” value is reported as “++ (++ indicates a value from 2.0 up to 5.0 μM)”.

Consider `Fc1ccccc1-c1ccnc(N2CCCC2)c1-c1nc2ccccc2[nH]1` [Example 3, 2-(4-(2-fluorophenyl)-2-(pyrrolidin-1-yl)pyridin-3-yl)-1H-benzo[d]imidazole], for which the EC50 lay within 1 to 10 µM and the “Empirical Emax” value is “++++ (++++ indicates a value greater than 7.5)”.

For the compound `CC(C)c1ccc(-c2nnc(-c3c(-c4ccccc4)ccnc3N3CC[C@H](F)C3)o2)cc1` [Example 30, (S)-2-(2-(3-fluoropyrrolidin-1-yl)-4-phenylpyridin-3-yl)-5-(4-isopropylphenyl)-1,3,4-oxadiazole], the EC50 is 1 to 10 µM and the “Empirical Emax” value is “+ (+ indicates a value less than 2.0 μM)”.

For the compound `FC1(F)CCN(c2nccc(-c3ccccn3)c2-c2nc3c([nH]2)CCOC3)C1` [Example 76, 2-[2-(3,3-difluoropyrrolidin-1-yl)-4-(2-pyridyl)-3-pyridyl]-1,4,6,7-tetrahydropyrano[3,4-d]imidazole], the EC50 lay within 10 to 50 µM and the “Empirical Emax” value was “+++ (+++ indicates a value from 5.0 up to 7.5 μM)”.

For the compound `FC(F)(F)C1(CNc2nccc(-c3ccccc3)c2-c2nc3c([nH]2)COCC3)CCC1` [Example 51, 4-phenyl-3-(3,4,6,7-tetrahydropyrano[3,4-d]imidazol-2-yl)-N-((1-(trifluoromethyl)cyclobutyl)methyl)pyridin-2-amine], the EC50 is below 1 µM and the “Empirical Emax” value is recorded as “+ (+ indicates a value less than 2.0 μM)”.

As to `F[C@H]1CCN(c2nccc(-c3ccccc3)c2-c2nc3ccccc3o2)C1` [Example 68, (S)-2-(2-(3-fluoropyrrolidin-1-yl)-4-phenylpyridin-3-yl)benzo[d]oxazole], the EC50 is at least 50 µM and the “Empirical Emax” value is reported as “+ (+ indicates a value less than 2.0 μM)”.

In the case of `COC1CCc2nc(-c3c(-c4ccccc4)ccnc3N3CCC(F)(F)C3)[nH]c2C1` (centres unmarked) [Example 59, 2-(2-(3,3-difluoropyrrolidin-1-yl)-4-phenylpyridin-3-yl)-6-methoxy-4,5,6,7-tetrahydro-1H-benzo[d]imidazole], the EC50 was below 1 µM and the “Empirical Emax” value is on record as “++ (++ indicates a value from 2.0 up to 5.0 μM)”.

With `F[C@H]1CCN(c2nccc(-c3ccccc3)c2-c2cc(-c3cccnc3)[nH]n2)C1` [Example 19, (S)-2-(3-fluoropyrrolidin-1-yl)-4-phenyl-3-(5-(pyridin-3-yl)-1H-pyrazol-3-yl)pyridine], the EC50 is 10 to 50 µM and the “Empirical Emax” value is “++ (++ indicates a value from 2.0 up to 5.0 μM)”.

On to `Fc1ccccc1-c1ccnc(N2CCCC2)c1-c1nc2ncccc2[nH]1` [Example 2, 2-(4-(2-fluorophenyl)-2-(pyrrolidin-1-yl)pyridine-3-yl)-1H-imidazo[4,5-b]pyridine], for which the EC50 was in the range of 1 to 10 µM and the “Empirical Emax” value is on record as “++++ (++++ indicates a value greater than 7.5)”.

As for `FC1(F)CC2(CN(c3nccc(-c4ccccc4)c3-c3nc4c([nH]3)COCC4)C2)C1` [Example 50, 2-(2-(6,6-difluoro-2-azaspiro[3.3]heptan-2-yl)-4-phenylpyridin-3-yl)-3,4,6,7-tetrahydropyrano[3,4-d]imidazole], the EC50 was 10 to 50 µM and the “Empirical Emax” value was “++ (++ indicates a value from 2.0 up to 5.0 μM)”.

Turning to `Cc1[nH]c(-c2c(-c3ccccc3)ccnc2N2CCC(F)(F)C2)nc1-c1ccccc1` [Example 61, 2-(3,3-difluoropyrrolidin-1-yl)-3-(5-methyl-4-phenyl-1H-imidazol-2-yl)-4-phenylpyridine], the EC50 is 1 to 10 µM and the “Empirical Emax” value was “++ (++ indicates a value from 2.0 up to 5.0 μM)”.

For the compound `FC1(F)C2CN(c3nccc(-c4ccccc4)c3-c3nc4c([nH]3)COCC4)CC21` (centres unmarked) [Example 45, 2-(2-(6,6-difluoro-3-azabicyclo[3.1.0]hexan-3-yl)-4-phenylpyridin-3-yl)-3,4,6,7-tetrahydropyrano[3,4-d]imidazole], the EC50 was below 1 µM and the “Empirical Emax” value is reported as “+++ (+++ indicates a value from 5.0 up to 7.5 μM)”.

`CCOC(=O)N1CCc2nc(-c3c(-c4ccccc4)ccnc3N3CC[C@H](F)C3)n(C(=O)OCC)c2C1` [Example 40, diethyl (S)-2-(2-(3-fluoropyrrolidin-1-yl)-4-phenylpyridin-3-yl)-6,7-dihydro-3H-imidazo[4,5-c]pyridine-3,5(4H)-dicarboxylate]: the EC50 was 1 to 10 µM and the “Empirical Emax” value is recorded as “+++ (+++ indicates a value from 5.0 up to 7.5 μM)”.

Turning to `Fc1cc(F)cc(-c2ccnc(N3CCCC3)c2-c2nc3ccccc3[nH]2)c1` [Example 23, 2-(4-(3,5-difluorophenyl)-2-(pyrrolidin-1-yl)pyridin-3-yl)-1H-benzo[d]imidazole], the EC50 was 1 to 10 µM and the “Empirical Emax” value was “++ (++ indicates a value from 2.0 up to 5.0 μM)”.

Regarding `F[C@H]1CCN(c2nccc(-c3ccccc3)c2-c2nc3c([nH]2)CNCC3)C1` [Example 35, (S)-2-(2-(3-fluoropyrrolidin-1-yl)-4-phenylpyridin-3-yl)-4,5,6,7-tetrahydro-3H-imidazo[4,5-c]pyridine 2,2,2-trifluoroacetic Acid Salt (Free Acid)], the EC50 is at least 50 µM and the “Empirical Emax” value is “+ (+ indicates a value less than 2.0 μM)”.

Consider `CC(C)C(=O)N1CCc2nc(-c3c(-c4ccccc4)ccnc3N3CC[C@H](F)C3)[nH]c2C1` [Example 41, (S)-1-(2-(2-(3-fluoropyrrolidin-1-yl)-4-phenylpyridin-3-yl)-3,4,6,7-tetrahydro-5H-imidazo[4,5-c]pyridin-5-yl)-2-methylpropan-1-one], for which the EC50 was at least 50 µM and the “Empirical Emax” value is on record as “+ (+ indicates a value less than 2.0 μM)”.

Consider `FC1(F)CCN(c2nccc(-c3ccc4[nH]ncc4c3)c2-c2nc3c([nH]2)CCOC3)C1` [Example 74, 2-[2-(3,3-difluoropyrrolidin-1-yl)-4-(1H-indazol-5-yl)-3-pyridyl]-1,4,6,7-tetrahydropyrano[3,4-d]imidazole], for which the EC50 was in the range of 1 to 10 µM and the “Empirical Emax” value is recorded as “++++ (++++ indicates a value greater than 7.5)”.

On to `Cn1cc2nc(-c3c(-c4ccccc4F)ccnc3N3CCC(F)(F)C3)[nH]c2n1` [Example 80, 5-[2-(3,3-difluoropyrrolidin-1-yl)-4-(2-fluorophenyl)-3-pyridyl]-2-methyl-4H-imidazo[4,5-c]pyrazole], for which the EC50 was in the range of 1 to 10 µM and the “Empirical Emax” value is recorded as “+++ (+++ indicates a value from 5.0 up to 7.5 μM)”.

Consider `Fc1ccccc1-c1ccnc(N2CC[C@H](F)C2)c1-c1nc2ccccc2[nH]1` [Example 18, (S)-2-(4-(2-fluorophenyl)-2-(3-fluoropyrrolidin-1-yl)pyridin-3-yl)-1H-benzo[d]imidazole], for which the EC50 is 1 to 10 µM and the “Empirical Emax” value is given as “++++ (++++ indicates a value greater than 7.5)”.

For `Cc1nc(-c2c(-c3ccccc3)ccnc2N2CC[C@H](F)C2)[nH]c1C(F)(F)F` [Example 33, (S)-2-(3-fluoropyrrolidin-1-yl)-3-(4-methyl-5-(trifluoromethyl)-1H-imidazol-2-yl)-4-phenylpyridine], the EC50 was 10 to 50 µM and the “Empirical Emax” value was “++ (++ indicates a value from 2.0 up to 5.0 μM)”.

`Fc1cccc(-c2ccnc(N3CCC(F)(F)C3)c2-c2nc3c([nH]2)CCOC3)c1` [Example 75, 2-[2-(3,3-difluoropyrrolidin-1-yl)-4-(3-fluorophenyl)-3-pyridyl]-1,4,6,7-tetrahydropyrano[3,4-d]imidazole]: the EC50 was below 1 µM and the “Empirical Emax” value was “++++ (++++ indicates a value greater than 7.5)”.

With `FC1(F)CCN(c2nccc(-c3ccccc3)c2-c2nc3c([nH]2)COCC3)C1` [Example 43, 2-(2-(3,3-difluoropyrrolidin-1-yl)-4-phenylpyridin-3-yl)-3,4,6,7-tetrahydropyrano[3,4-d]imidazole], the EC50 is below 1 µM and the “Empirical Emax” value is given as “+++ (+++ indicates a value from 5.0 up to 7.5 μM)”.
